Measured values from a melting point compilation (Tetko et al.; mined from patent text by program, amines drawn as free bases though some values may be those of a salt).

Compound | melting point
CN1CCN(S(=O)(=O)c2ccc(N3CCC(NC[C@H](O)c4ccc(O)c(NS(C)(=O)=O)c4)CC3)cc2)CC1 | 89 to 91 °C
C[Si](C)(C)c1cc(CCC(=O)O)co1 | 25 °C
COC(=O)Cc1sc(=O)[nH]c1/C=C/c1ccccc1 | 164 °C
CC1(C)CCC(C)(C)c2cc(C#CCO)ccc21 | 84 to 85 °C
O=S(=O)(CI)c1ncc(Cl)cn1 | 152 °C
OCC(O)(Cn1cncn1)c1ccc(F)cc1F (stereo not drawn) | 99 to 100 °C
Cc1ccc2c(c1)C(CC(=O)NO)N(c1ccccc1)S2(=O)=O (stereo not drawn) | 150 to 155 °C
O=C(O)CCOCc1ccccc1 | 35.2 °C
Cc1nc(CNC=O)ccc1OCc1ccccc1 | 67 to 68 °C
CC1(N2C(=O)c3cccc([N+](=O)[O-])c3C2=O)C=CC(OC(F)(F)C(F)C(F)(F)F)=CC1 (stereo not drawn) | 121 °C
COP(=O)(OC)C(NC=O)P(=O)(OC)OC | 95 °C
O=C(Nc1ncccn1)c1c(O)ccc2cc(-c3cccc(O)c3)ccc12 | 156 °C
COc1ccc(Oc2cccc3c2C2(COc4cc5c(cc42)OCCO5)C(=O)N3C)cc1 (stereo not drawn) | 55 to 58 °C
COc1ccc2nccc(NC(=O)N3CCN(CC(O)c4cnc5ccccc5n4)CC3)c2n1 (stereo not drawn) | 133 to 135 °C
CC1C(=O)N(c2ccc(F)cc2)C(=S)N1c1ccc(Oc2ccccc2)cc1 (stereo not drawn) | 150 °C
O=C(O)C1Cc2c(n(Cc3ccccc3)c3ccccc23)CN1 (stereo not drawn) | 252 to 253 °C
CC(Oc1ccc(C(=O)O)cc1)c1ccccc1OCc1ccccc1 (stereo not drawn) | 203 to 204 °C
Cc1cc(Cc2cc3cc(C(F)(F)F)ccc3n2S(=O)(=O)c2cccc(C(C)(C)C)c2)c(F)cc1C(=O)O | 195 °C
COC(=O)c1ccc(C(C(N)=O)C(C)c2cc([N+](=O)[O-])ccc2N2CCCCC2)cc1 (stereo not drawn) | 178 to 180 °C
CCCCc1nc2ccc([C@H]3C[C@H](CO)ON3C)cc2c(=O)n1Cc1ccc(-c2ccccc2-c2nnn[nH]2)cc1 (relative stereo) | 110 °C
CN(C)C(=O)c1nn(-c2ccc(Cl)cc2)c(=O)c2c(N)scc12 | 242 to 244 °C
COC(=O)c1cncc(NC(=O)C(C)CS)c1 (stereo not drawn) | 96 to 97 °C
Cc1c(Cl)ccc2c3cccc(C(=O)O)c3n(C)c12 | 237 °C
COc1cc(C#N)cc(-c2ccc3c(c2)C(C)(C)OC(=O)N3)c1 | 254 to 255 °C
Cc1oc(-c2ccccc2)nc1COc1ccc(CCn2cc(CCC(=O)O)c(-c3ccccc3)n2)cc1 | 85 to 86 °C

Compound | melting point
Clc1ccc(OCc2ccccc2)c(Br)c1 | 49 to 50.5 °C
Fc1ccccc1-c1ccc2nnn(Cc3ccc4ncccc4c3)c2n1 | 164 to 166 °C
C=CCC(F)(F)C(O)C(CC(C)C)NC(=O)c1ccccc1 (stereo not drawn) | 110 °C
CCCCCCCCCCCCCCCCCC(=O)OCCOc1ccc(C2C(=O)Oc3c2cc(C(C)(C)C)cc3C(C)(C)C)cc1 (stereo not drawn) | 54 to 60 °C
Cc1ncc(CN2CCc3ccc(OCc4ccccc4)cc3C2)c(N)n1 | 151 to 153 °C
N#Cc1cccc(-c2cc(-c3cc(C#N)ccc3[N+](=O)[O-])no2)c1 | 225 to 227 °C
Fc1ccc(-c2[nH]cc(C3=CC4CCCCN4CC3)c2-c2ccncc2)cc1 (stereo not drawn) | 223 to 224 °C
Clc1ccc(OCc2nc3c(OCc4ccccc4)cccc3n2CCCC2CCN(CCCN3CCCCC3)CC2)cc1 | 58 to 60 °C
CCOC(=O)C1Cc2cc3c(-c4ccccc4F)noc3cc2O1 (stereo not drawn) | 115 to 116 °C
Cc1cc(C)cc(N(CCCC(N)=O)Cc2ccc3nc(NCCCN4CCOCC4)n(Cc4cccc(Br)n4)c3c2)c1 | 82 °C
C=CCc1ccc(OCCC(C)C)c2c(=O)cc(C(=O)O)oc12 | 79 to 80 °C
Cc1cn(Cc2ccccc2)c(=O)n(CCCCl)c1=O | 48 to 50 °C
COC(=O)Cn1c(Cl)c(Cl)c(Cl)c1Cl | 115 °C
Nc1c(Cl)cc(C(=CC(=O)N2CCOCC2)c2ccc(Cl)cc2)cc1Cl | 140 to 144 °C
N#CC1=C(C2CC2)Nc2n[nH]cc2C1c1cccc(Cl)c1Cl (stereo not drawn) | > 250 °C
CC[C@H]1c2cc(F)ccc2-c2ccccc2N1C(=O)c1ccc(O)cc1 | 103 to 104 °C
COc1cc(C)c(Nc2nnc3n2C(c2ccc(F)cc2)CSC3)cc1OC (stereo not drawn) | 165 to 166 °C
CC(C)[C@@H]1C[C@@H]([C@H](Br)CC2CCCCC2)OC1=O | 95 to 95.5 °C
O=c1c(Cc2cccnc2)cn2c3cc(F)ccc3c3cc(OCCCO)cc1c32 | 204 to 209 °C
Cc1nnc2n1-c1sc(Cl)cc1C(c1ccccc1F)=NC2 | 187 to 189 °C
Cc1cccc(-n2c(-c3cc(-c4ccc(S(C)(=O)=O)cc4)c(N4CCOCC4)s3)nc3ccccc3c2=O)c1 | 208 to 210 °C
Cc1cc(CNC(=O)c2cc(N3CCN(Cc4ccc(F)cc4)C3=O)n[nH]2)n[nH]1 | 254 to 255 °C
O=C(O)C=C1SC(=Nc2ccc(Cl)c(Cl)c2)N(c2ccc(Cl)c(Cl)c2)C1=O | 221 to 222 °C
C=CCOc1ccc(CC(=O)NCC(=O)N[C@@H](Cc2c[nH]cn2)C(=O)OC)cc1Cl | 147 to 150 °C
FC(F)(F)c1ccc(I)c(I)c1 | 62 to 64 °C

Compound | melting point
Cc1cc(OCc2coc(/C=C/c3ccc(S(=O)C(F)(F)F)cc3)n2)ccc1CCCCc1c[nH]nn1 (stereo not drawn) | 113 to 114 °C
CCNC(=O)c1c(C(F)(F)F)cccc1[Si](C)(C)C | 134 to 135 °C
COc1cccc(CCN2C(=O)COc3ccc(C=C4SC(=S)NC4=O)cc32)c1 | 233 to 236 °C
CC(CNS(=O)(=O)c1ccccc1)c1ccc(OCC(=O)O)c(F)c1 (stereo not drawn) | 49 to 51 °C
Nc1c(-c2ccccc2)nn2c1ccc1ccccc12 | 255 to 258 °C
O=S(=O)(Nc1ccc2c(OCc3coc(-c4ccc(C(F)(F)F)cc4)n3)cccc2c1)C(F)(F)F | 205 to 207 °C
NC(=O)CN1CCN(c2cccccc2=O)CC1 | 169 to 171 °C
Cc1c(C(F)(F)F)cnc(O)c1Cl | 204 to 205 °C
CC(C)C(NC(=O)c1ccc(C(=O)NCCCC(=O)O)cc1)C(=O)N1CCCC1C(=O)NC(C(=O)C(F)(F)F)C(C)C (mixture of isomers) | 84 to 86 °C
O=C(O)Cc1cc(C(=O)C=Cc2ccccc2Cl)ccc1O | 235 °C
CCCCCCOc1c(F)ccc(C(N)=O)c1F | 86 to 87 °C
CN=C(SCc1ccc(OC)cc1)C1(c2cccnc2)CCCCC1CCO (stereo not drawn) | 145 to 146 °C
CCCC1CCC(CC(=O)N[C@@H](Cc2cc(F)cc(F)c2)[C@H](O)CNCc2cccc(CC)c2)CC1=O (stereo partly drawn) | 52 to 54 °C
CCCCC(CC)COc1cc2c3c(c4cc(OCC(CC)CCCC)c(OCC(CC)CCCC)cc4c2cc1OCC(CC)CCCC)C(=O)C=CC3=O (stereo not drawn) | 105 to 107 °C
CC1(C)CCc2c(N3CCOCC3)nc3sc4c(NCc5ccco5)ncnc4c3c2C1 | 210 to 211 °C
O=C(O)c1n[nH]c2c1C=CC(c1ccccc1)(c1ccccc1)C2 | > 260 °C
CSc1ncncc1C(Cl)c1ccccc1F (stereo not drawn) | 144 to 145 °C
CCOC(=O)c1cn(Cc2ccc(-c3ccccc3-c3nnn[nH]3)cc2)c2sc(CC)c(NC(C)=O)c2c1=O | 163 to 166 °C
COC(=O)CCSCC(=O)c1ccc2[nH]c(=O)[nH]c2c1 | 185 to 187 °C
CSC1C(=O)Nc2c(C(=O)c3ccc(Cl)cc3)cccc21 (stereo not drawn) | 186 to 188 °C
Cc1ccc(C(O)C2C(c3ccccc3)CC(=O)N2C)s1 (stereo not drawn) | 185 to 188 °C
COCCOC(=O)NC(=O)CCl | 97 to 99 °C
CN(C)C(=O)c1ccccc1Sc1ccc(Br)cc1[N+](=O)[O-] | 112 to 114 °C
N#Cc1ccc(C(=O)Nc2cc(C(=O)NCc3ccccc3)ccn2)cc1 | 180 to 181 °C
CCOC(=O)c1ncn2c1C(C)N=C(c1ccccc1F)c1cc(C#C[Si](C)(C)C)ccc1-2 (stereo not drawn) | 186 to 187 °C

Compound | melting point
C=C(C)C(=O)NCCCNC(=O)CC(C)=O | 93 to 94 °C
COc1cccc2c(C(F)(F)F)cc(C)nc12 | 112 to 113 °C
NC1=C(c2cccc(C(F)(F)F)c2)C(=O)OC1 | 165 °C
CCCCN(C1CCCOc2ccccc21)S(=O)(=O)CC (stereo not drawn) | 62 to 65 °C
CCCCn1nc(C)c(C=O)c1Cc1ccc(-c2ccccc2-c2nnn[nH]2)cc1 | 64 to 70 °C
Cn1c2c(c3ccccc31)Cc1c(CO)c(CO)c(-c3ccc(Cl)cc3)n1C2 | 238 to 239 °C
CNC(=S)Nc1ccc(C2=NNC(=O)CC2C)cc1 (stereo not drawn) | 213 °C
O=C1N(c2ccc(Cl)c(Cl)c2)CCON1c1ccccc1 | 112 to 113 °C
O=[N+]([O-])c1cccc(Cn2ccnc2)c1 | 97 to 98 °C
O=c1c(Cl)c(Cl)sn1C1CCCCC1 | 114 to 116 °C
NP(N)(=S)N1CCCCC1 | 97 to 102 °C
CCc1cc2c(cc1O)CCC1C2CCC2(C)C(CCO[Si](c3ccccc3)(c3ccccc3)C(C)(C)C)CCC12 (stereo not drawn) | 134 to 135 °C
Cc1ccc(N(Cc2cccnc2)S(C)(=O)=O)c(C)c1 | 62 to 65 °C
Nc1nc(Cl)c(Cl)nc1C=Nc1ccc(Cl)cc1 | 179 to 182 °C
O=C1C(=O)N(CCCCN2CCN(C(c3ccccc3)c3ccccc3)CC2)c2ccccc21 | 127 to 129 °C
COc1ccc(O)c(C2(CO)C(=O)N(Cc3ccc(C(F)(F)F)o3)c3ccc(F)cc32)n1 (stereo not drawn) | 110 to 113 °C
Nc1nc(N)c2c(ccc3c2cc(Cl)n3Cc2ccccc2)n1 | 285 to 286 °C
COc1cc2nc(N3CCN(C(=O)C4CCc5ccccc5O4)CC3)nc(N)c2cc1OC (stereo not drawn) | 165 to 167 °C
Fc1cccc(CSc2nnc(-c3ccnc(Nc4ccccn4)c3)o2)c1 | 141 to 142 °C
Cc1cc(O)c(C(C)(C)C)cc1SC(Sc1cc(C(C)(C)C)c(O)cc1C)Sc1cc(C(C)(C)C)c(O)cc1C | 204 to 205 °C
CC(=NO)c1nn(C)c2cc(Oc3ccc(Cl)cc3)ccc12 | 148 to 150 °C
C=CCn1c(=O)c(C(=O)O)c(NC(=O)CCl)c2cccnc21 | 145 to 148 °C
O=C(Nc1ccc2ccc(Cl)nc2n1)c1cccc(Br)c1 | 224 °C
